Laboratory results: patent publication US11524962B2, “Substituted pyrrolo[2,3-d]pyrimidines as inhibitors of protein arginine methyl transferase 5 (PRMT5)” (PRELUDE THERAPEUTICS, INCORPORATED, priority 2017, dated 2022)
pIC50: −log10 of the molar value.

Key:
PRMT5/MEP50 complex [1] = biological target: T1, PRMT5/MEP50 complex (Homo sapiens (Human), UniProt O14744); experiment: Flash plate assay; assay type: biochemical; conditions: read-out: Flash Plate IC50
Experimental: Flash plate assay. Compounds were solubilized, and 3-fold diluted in 100% DMSO. […] Standard reactions were performed in a total volume of 30 μl in assay buffer, with 300 nM histone H4 based AcH4-23 (Anaspec: AS-65002) as substrate. To this was added the PRMT5/MEP50 complex diluted to provide a final assay concentration of 2.5 nM and the compounds were allowed to preincubate for 20 minutes at 37° C. The reaction was initiated by adding S-[3H-methyl]-adenosyl-L-methionine (PerkinElmer: NET155001MC) to final concentration of 1 μM. Following a 30 minutes incubation at 37° C., the reaction was stopped by adding 25 μL of 8M Guanidine HCl. Prepare streptavidin YSI SPA beads (Perkinelmer: RPNQ0012) at 0.3 mg/mL in assay buffer. To each reaction, add 150 μL of SPA beads suspension, and incubated while shaking at room temperature for 30 minutes. The plate was centrifuged at 100×g for 30 second before reading in a scintillation counter. IC50 values were determined by fitting the data to the standard 4 parameters with Hill Slope using GraphPad Prism software. This procedure produced the Flash Plate data in Table 7.

PRMT5/MEP50 complex [2] = biological target: T1, PRMT5/MEP50 complex; experiment: HotSpot Assay; assay type: biochemical
Experimental: HotSpot Assay. Compounds were solubilized and 3-fold diluted in 100% DMSO. […] Standard reactions were performed in a total volume of 50 μl in assay buffer, with histone H2A (5 μM final) as substrate. To this was added the PRMT5/MEP50 complex diluted to provide a final assay concentration of 5 nM and the compounds were allowed to preincubate for 15 to 20 minutes at room temperature. The reaction was initiated by adding S-[3H-methyl]-adenosyl-L-methionine (PerkinElmer) to final concentration of 1 μM. Following a 60 minutes incubation at 30° C., the reaction was stopped by adding 100 μL of 20% TCA. Each reaction was spotted onto filter plate (MultiScreen FB Filter Plate, Millipore), and washed 5 times with PBS buffer, Scintillation fluid was added to the filter plate and read in a scintillation counter. IC50 values were determined by fitting the data to the standard 4 parameters with Hill Slope using GraphPad Prism software. This procedure generated the HotSpot data in Table 7.

T1 sequence (O14744 whole entry): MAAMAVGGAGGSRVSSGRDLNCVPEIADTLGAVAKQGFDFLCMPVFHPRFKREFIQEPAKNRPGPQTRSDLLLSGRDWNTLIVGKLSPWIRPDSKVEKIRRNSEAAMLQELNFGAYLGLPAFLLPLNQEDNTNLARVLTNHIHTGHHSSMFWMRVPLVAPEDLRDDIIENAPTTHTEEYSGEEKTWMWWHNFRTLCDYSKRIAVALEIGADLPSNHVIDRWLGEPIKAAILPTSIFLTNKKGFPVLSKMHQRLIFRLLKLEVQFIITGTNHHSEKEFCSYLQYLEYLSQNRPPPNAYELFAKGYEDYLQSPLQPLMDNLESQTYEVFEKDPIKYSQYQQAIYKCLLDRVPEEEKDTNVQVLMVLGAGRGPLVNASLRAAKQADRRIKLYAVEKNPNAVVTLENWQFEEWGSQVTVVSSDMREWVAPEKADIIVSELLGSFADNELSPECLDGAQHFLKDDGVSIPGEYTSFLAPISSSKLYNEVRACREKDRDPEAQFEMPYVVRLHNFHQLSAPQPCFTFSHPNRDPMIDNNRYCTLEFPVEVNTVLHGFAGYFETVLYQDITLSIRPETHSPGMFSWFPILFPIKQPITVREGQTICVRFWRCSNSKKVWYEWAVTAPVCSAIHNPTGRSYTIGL
T1 sequence (Q9BQA1 whole entry partner): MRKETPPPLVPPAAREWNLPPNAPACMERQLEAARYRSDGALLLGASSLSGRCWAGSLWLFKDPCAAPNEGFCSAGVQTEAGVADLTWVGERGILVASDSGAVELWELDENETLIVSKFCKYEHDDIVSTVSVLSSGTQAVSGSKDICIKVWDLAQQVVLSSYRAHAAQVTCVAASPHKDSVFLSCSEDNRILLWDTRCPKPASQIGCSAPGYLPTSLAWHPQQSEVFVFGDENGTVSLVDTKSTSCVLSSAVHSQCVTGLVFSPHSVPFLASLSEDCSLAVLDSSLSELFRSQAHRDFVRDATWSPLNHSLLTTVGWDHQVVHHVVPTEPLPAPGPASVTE

pIC50 (PRMT5/MEP50 complex [1])	pIC50 (PRMT5/MEP50 complex [2])	SMILES
6.66	6.43	Nc1ncnc2c1c(C(F)(F)F)cn2[C@@H]1O[C@H]([C@H](O)c2ccc3c(c2)CC3)[C@@H](O)[C@H]1O [Example 38, (2R,3R,4S,5R)-2-(4-amino-5-(trifluoromethyl)-7H-pyrrolo[2,3-d]pyrimidin-7-yl)-5-((R)-bicyclo[4.2.0]octa-1(6),2,4-trien-3-yl(hydroxy)methyl)tetrahydrofuran-3,4-diol]
6.41		CCCCc1ncnc2c1ccn2[C@@H]1O[C@H]([C@H](O)c2ccc3c(c2)CC3)[C@@H](O)[C@H]1O [Example 42, (2R,3S,4R,5R)-2-((R)-bicyclo[4.2.0]octa-1,3,5-trien-3-yl(hydroxy)methyl)-5-(4-butyl-7H-pyrrolo[2,3-d]pyrimidin-7-yl)tetrahydrofuran-3,4-diol]
6.83	6.82	CCO/N=c1\[nH]cnc2c1ccn2[C@@H]1O[C@H]([C@H](O)c2ccc3c(c2)CC3)[C@@H](O)[C@H]1O [Example 21, 7-((2R,3R,4S,5R)-5-((R)-bicyclo[4.2.0]octa-1(6),2,4-trien-3-yl(hydroxy)methyl)-3,4-dihydroxytetrahydrofuran-2-yl)-3,7-dihydro-4H-pyrrolo[2,3-d]pyrimidin-4-one O-ethyl oxime]
6.92	7.49	CO/N=c1\[nH]cnc2c1ccn2[C@@H]1O[C@H]([C@H](O)c2ccc3c(c2)CC3)[C@@H](O)[C@H]1O [Example 20, 7-((2R,3R,4S,5R)-5-((R)-bicyclo[4.2.0]octa-1(6),2,4-trien-3-yl(hydroxy)methyl)-3,4-dihydroxytetrahydrofuran-2-yl)-3,7-dihydro-4H-pyrrolo[2,3-d]pyrimidin-4-one O-methyl oxime]
6.70		O[C@@H]1[C@H](O)[C@@H]([C@H](O)c2ccc3c(c2)CC3)O[C@H]1n1ccc2c(CCOCc3ccccc3)ncnc21 [Example 55, (2R,3R,4S,5R)-2-(4-(2-(benzyloxy)ethyl)-7H-pyrrolo[2,3-d]pyrimidin-7-yl)-5-((R)-bicyclo[4.2.0]octa-1(6),2,4-trien-3-yl(hydroxy)methyl)tetrahydrofuran-3,4-diol]
6.54	7.34	COc1ncnc2c1ccn2[C@@H]1O[C@H]([C@H](O)c2ccc3c(c2)CC3)[C@@H](O)[C@H]1O [Example 35, (2R,3S,4R,5R)-2-[(R)-4-bicyclo[4.2.0]octa-1,3,5-trienyl(hydroxy)methyl]-5-(4-methoxypyrrolo[2,3-d]pyrimidin-7-yl)tetrahydrofuran-3,4-diol]
6.16		CN(C)C(=O)Nc1ncnc2c1ccn2[C@@H]1O[C@H]([C@H](O)c2ccc3c(c2)CC3)[C@@H](O)[C@H]1O [Example 23, 3-(7-((2R,3R,4S,5R)-5-((R)-bicyclo[4.2.0]octa-1(6),2,4-trien-3-yl(hydroxy)methyl)-3,4-dihydroxytetrahydrofuran-2-yl)-7H-pyrrolo[2,3-d]pyrimidin-4-yl)-1,1-dimethylurea]
6.56		Cc1ncnc2c1ccn2[C@@H]1O[C@H]([C@@H](O)c2ccc3c(c2)CC3)[C@@H](O)[C@H]1O [Example 47, (2R,3S,4R,5R)-2-((S)-bicyclo[4.2.0]octa-1,3,5-trien-3-yl(hydroxy)methyl)-5-(4-methyl-7H-pyrrolo[2,3-d]pyrimidin-7-yl)tetrahydrofuran-3,4-diol]
5.60		CCOCc1ncnc2c1ccn2[C@@H]1O[C@H]([C@H](O)c2ccc3c(c2)CC3)[C@@H](O)[C@H]1O [Example 50, (2R,3S,4R,5R)-2-((R)-bicyclo[4.2.0]octa-1(6),2,4-trien-3-yl(hydroxy)methyl)-5-(4-(ethoxymethyl)-7H-pyrrolo[2,3-d]pyrimidin-7-yl)tetrahydrofuran-3,4-diol]
5.91		C[C@](O)(c1ccc2c(c1)CC2)[C@H]1O[C@@H](n2ccc3c(N)ncnc32)[C@H](O)[C@@H]1O [Example 39, (2R,3R,4S,5S)-2-(4-amino-7H-pyrrolo [2,3-d]pyrimidin-7-yl)-5-((S)-1-(bicyclo[4.2.0]octa-1(6),2,4-trien-3-yl)-1-hydroxyethyl)tetrahydrofuran-3,4-diol]
7.29		O[C@@H]1[C@H](O)[C@@H]([C@H](O)c2ccc3c(c2)CC3)O[C@H]1n1ccc2c(CCl)ncnc21 [Example 51, (2R,3S,4R,5R)-2-((R)-bicyclo[4.2.0]octa-1(6),2,4-trien-3-yl(hydroxy)methyl)-5-(4-(chloromethyl)-7H-pyrrolo[2,3-d]pyrimidin-7-yl)tetrahydrofuran-3,4-diol]
7.51	7.92	Nc1ncnc2c1c(I)cn2[C@@H]1O[C@H]([C@H](O)c2ccc3c(c2)CC3)[C@@H](O)[C@H]1O [Example 37, (2R,3R,4S,5R)-2-(4-amino-5-iodo-7H-pyrrolo[2,3-d]pyrimidin-7-yl)-5-((R)-bicyclo[4.2.0]octa-1(6),2,4-trien-3-yl(hydroxy)methyl)tetrahydrofuran-3,4-diol]
6.72	7.24	CCO/N=c1\[nH]cnc2c1ccn2[C@@H]1O[C@H]([C@](C)(O)c2ccc3c(c2)CC3)[C@@H](O)[C@H]1O [Example 22, 7-((2R,3R,4S,5S)-5-((R)-1-(bicyclo[4.2.0]octa-1(6),2,4-trien-3-yl)-1-hydroxyethyl)-3,4-dihydroxytetrahydrofuran-2-yl)-3,7-dihydro-4H-pyrrolo[2,3-d]pyrimidin-4-one O-ethyl oxime]
5.99		C=C(C)c1ncnc2c1ccn2[C@@H]1O[C@H]([C@H](O)c2ccc3c(c2)CC3)[C@@H](O)[C@H]1O [Example 40, (2R,3S,4R,5R)-2-((R)-bicyclo[4.2.0]octa-1(6),2,4-trien-3-yl(hydroxy)methyl)-5-(4-(prop-1-en-2-yl)-7H-pyrrolo[2,3-d]pyrimidin-7-yl)tetrahydrofuran-3,4-diol]
5.69		C=Cc1ncnc2c1ccn2[C@@H]1O[C@H]([C@H](O)c2ccc3c(c2)CC3)[C@@H](O)[C@H]1O [Example 46, (2R,3S,4R,5R)-2-((R)-bicyclo[4.2.0]octa-1(6),2,4-trien-3-yl(hydroxy)methyl)-5-(4-vinyl-7H-pyrrolo[2,3-d]pyrimidin-7-yl)tetrahydrofuran-3,4-diol]
6.74		OCc1ncnc2c1ccn2[C@@H]1O[C@H]([C@H](O)c2ccc3c(c2)CC3)[C@@H](O)[C@H]1O [Example 43, (2R,3S,4R,5R)-2-((R)-bicyclo[4.2.0]octa-1,3,5-trien-3-yl(hydroxy)methyl)-5-(4-(hydroxymethyl)-7H-pyrrolo[2,3-d]pyrimidin-7-yl)tetrahydrofuran-3,4-diol]
6.64		CC(C)c1ncnc2c1ccn2[C@@H]1O[C@H]([C@H](O)c2ccc3c(c2)CC3)[C@@H](O)[C@H]1O [Example 41, (2R,3S,4R,5R)-2-((R)-bicyclo[4.2.0]octa-1(6),2,4-trien-3-yl(hydroxy)methyl)-5-(4-isopropyl-7H-pyrrolo[2,3-d]pyrimidin-7-yl)tetrahydrofuran-3,4-diol]
